{"source": "patent US8236754B2", "about": "“Methods for improving the structure and function of arterioles” (The Regents of the University of California, priority 2004, dated 2012)", "key": {"[1]": {"system": "facial artery of LDL receptor null mice", "assay": "Facial artery ring vasoreactivity, acetylcholine relaxation after oral treatment", "type": "in vivo", "settings": "Western diet, 1 mg/mL in drinking water, six weeks"}, "[2]": {"system": "apoe null mice", "settings": "oral DMPC; cited from earlier work"}, "[3]": {"system": "mouse facial artery", "settings": "published studies; cited from earlier work"}, "[4]": {"system": "brain arteriolar smooth muscle α-actin", "assay": "Brain arteriolar smooth muscle α-actin immunostaining, wall to lumen ratio", "type": "in vivo", "settings": "LDL receptor null mice, Western diet 6 weeks, 300 μg/mL in drinking water; D-4F vs scrambled D-4F", "experimental": "(§1) Female wild-type and LDL receptor null C57BL/6 mice were from Jackson Laboratories (Bar Harbour, Me.). The mice were maintained on a chow diet (Ralston Purina) prior to administration of a Western diet (Teklad/Harlan, Madison Wis., diet No. 88137; 42% fat, 0.15% cholesterol, w/w). For studies of brain arterioles the mice were anesthetized with intramuscular ketamine (100 mg/kg) and acepromazine (2.5 mg/kg) and the heart was perfused via the left ventricle with 25 mL phosphate buffered saline (PBS) containing heparin (10 U/mL) followed by 100 mL of 4% paraformaldehyde (PFA) in PBS at pH 7.4 as described by Fernagut et al. (Fernagut et al. (2002) Neuroscience, 114: 1005-1017; Fernagut et al. (2004) Exp Neurol., 185: 47-62). […]\n(§2) Morphometry was performed to determine vascular wall thickness for all arterioles that were distended and perpendicularly cross-sectioned. […] A minimum of 10 arteries from each diameter group was examined in the cortical area and the deep white matter regions from each brain, and the wall thickness and wall to lumen ratios determined. The ratio of immunoreactive media thickness to the internal diameter of each vessel was assessed in sections immunostained for smooth muscle α-actin. […] Inter-observer variation was determined by having the three investigators measure the same 20 arterioles for wall thickness and lumen diameter and calculate the wall to lumen ratio. […]"}, "[5]": {"assay": "Plasma lipoprotein and lipid levels", "type": "in vivo, mice", "experimental": "Plasma lipoprotein and lipid levels were determined as described previously (Navab et al. (2004) Circulation, 109:r120-r125; Navab et al. (2005) Arterioscler Thromb Vasc Biol., 25: 1-7)."}, "[6]": {"system": "LDL receptor null mice", "assay": "T-maze continuous alternation task (T-CAT), spatial memory", "type": "in vivo", "experimental": "T-maze continuous alternation task (T-CAT) testing took place daily between 9 A.M. and 4 P.M. and was performed by one investigator unaware of the treatment groups. The mice were delivered to the testing room two hours prior to behavioral studies to allow familiarization with the extra-maze visual cues of the room. The T-maze apparatus used in our studies is identical to the one described by Gerlai et al. (Gerlai (1998) Behavioural Brain Research, 95: 91-101) and was made of transparent acrylic walls with a black acrylic bottom. The dimensions of start and goal arms were: length 75 cm, width 12 cm and height 20 cm. The maze was equipped with three removable guillotine doors that could be operated by manual remote control. The testing room was illuminated by ceiling and floor lights and a fan provided a constant background noise. The T-maze was separated from the investigator by a black curtain and the movement of the mice in the maze was observed on a TV monitor and videotaped. After each individual mouse the T-maze was carefully cleaned with Windex spray and dried with paper towels. The T-maze continuous alternation task (T-CAT) limits the handling of mice and permits their exploratory behavior to be carried out undisturbed. The procedure used in this study is identical to that described by Gerlai et al. (Id.) and consisted of one forced and 14 free choice trials. Consecutive choices made by the mice were measured and the alternation rate during the 14 free choice trials was calculated (0%-no alternation, 100%-alternation at each trial, 50%-random choice). The time (in seconds) needed to complete the 15 trials was recorded and analyzed. The T-CAT testing was continuously registered by a video tracking system (SD Instruments Inc., San Diego, Calif.) and stored on a computer. Statistics were performed using StatView software (SAS Institute, Cary, N.C.)"}, "[7]": {"system": "brain arterioles of LDL receptor null mice", "assay": "Brain arteriolar wall thickness and lumen diameter by morphometry on H&E sections", "type": "in vivo", "settings": "Western diet 6 weeks, 300 μg/mL in drinking water, D-4F vs scrambled D-4F", "experimental": "as §1, with “47-62). Brains were quickly removed and stored for 24 hrs in 4% PFA at 4° C. and then transferred to 10% sucrose in PBS (pH 7.4) and left until they sank to the bottom of the solution. The right half of the brains were embedded in OCT (Tissue-Tek; Miles Laboratories Ltd, Elkhart Ind.) and frozen in isopentane at −40° C. and stored at −80° C. until sectioned in a cryostat at −20° C. The frozen brain was cut into 8 μm sections coronally to include the underlying white matter and stained with hematoxylin-eosin (H&E) and for smooth muscle α-actin (Serotec, Raleigh, N.C.).” for “47-62).”\nas §2"}, "[8]": {"system": "LDL lipid hydroperoxides", "settings": "mice, oral D-4F, without changing plasma lipid levels; cited from earlier work"}, "[9]": {"settings": "LDL receptor null mice, Western diet 6 weeks, 300 μg/mL in drinking water, Mean±SEM"}}, "note": "Entries after “also recorded” stand apart in the source; their conditions may differ. Non-standard residues stand in square brackets, D forms with d.", "data": [{"compound": "CCCCCCCCCCCCCC(=O)OCC(COP(=O)([O-])OCC[N+](C)(C)C)OC(=O)CCCCCCCCCCCCC", "note": "(racemic) [DMPC, 1,2-ditetradecanoyl-rac-glycerol-3-phosphocholine]", "values": [{"measurement": "acetylcholine vasorelaxation of facial artery rings", "setting": "[1]", "result": "significant improvement; also recorded: improves"}, {"measurement": "HDL-cholesterol", "setting": "[2]", "result": "increase"}, {"measurement": "atherosclerosis", "setting": "[2]", "result": "prevention and regression"}, {"measurement": "plasma apoA-I levels", "setting": "[2]", "result": "increase"}]}, {"compound": "Ac-D-W-F-K-A-F-Y-D-K-V-A-E-K-F-K-E-A-F-NH2 [4F] (Ac-DWFKAFYDKVAEKFKEAF-NH2) [Peptide 4F]", "values": [{"measurement": "vasoreactivity of facial arteries", "setting": "[3]", "result": "dramatically improved"}]}, {"compound": "Ac-D-W-F-K-A-F-Y-D-K-V-A-E-K-F-K-E-A-F-NH2 [D-4F] (Ac-[dD][dW][dF][dK][dA][dF][dY][dD][dK][dV][dA][dE][dK][dF][dK][dE][dA][dF]-NH2) [Peptide D-4F, apoA-I mimetic peptide]", "values": [{"measurement": "vasoreactivity of facial arteries", "setting": "[3]", "result": "improved"}, {"measurement": "brain arteriolar wall smooth muscle α-actin content", "setting": "[4]", "result": "significantly reduced"}, {"measurement": "difference in plasma total cholesterol, LDL-cholesterol, HDL-cholesterol or triglycerides", "setting": "[5]; D-4F compared to scrambled D-4F", "result": "no significant difference"}, {"measurement": "HDL cholesterol concentration", "setting": "[5]; [9]", "result": "86 ± 6", "unit": "mg/dL"}, {"measurement": "LDL cholesterol concentration", "setting": "[5]; [9]", "result": "924 ± 76", "unit": "mg/dL"}, {"measurement": "Triglycerides", "setting": "[5]; [9]", "result": "330 ± 25", "unit": "mg/dL"}, {"measurement": "plasma total cholesterol concentration", "setting": "[5]; [9]", "result": "1,076±75 mg/dL"}, {"measurement": "performance in the T-maze / T-CAT (spatial memory)", "setting": "[6]; LDL receptor null mice, Western diet, oral treatment", "result": "significantly improved"}, {"measurement": "time to complete the 15 trials", "setting": "[6]; LDL receptor null mice, Western diet, oral treatment, difference not statistically significant", "result": "548 ± 37", "unit": "s"}, {"measurement": "performance in the T-maze / T-CAT (spatial memory)", "setting": "[6]; LDL receptor null mice, Western diet, oral treatment, listed as D4F", "result": "improvement"}, {"measurement": "number of spontaneous alternations in the T-maze test", "setting": "[6]; LDLR−/− mice, Western diet six weeks, 300 μg/mL in drinking water", "result": "significantly improved"}, {"measurement": "brain arteriolar wall thickness", "setting": "[7]", "result": "decreased; also recorded: reduced"}, {"measurement": "lumen diameters of the brain arterioles", "setting": "[7]", "result": "no difference"}, {"measurement": "ratio of wall to lumen diameter", "setting": "[7]", "result": "significantly less"}, {"measurement": "LDL lipid hydroperoxides", "setting": "[8]", "result": "decrease"}]}]}
